The record followed here is PMC5910229 (Neuron, 2018).

Data set [1] addresses T1, RIM1 C2B (RIM1α C2B domain) (Rattus norvegicus, UniProt Q9JIR4).
T1 sequence (Q9JIR4 1447-1615): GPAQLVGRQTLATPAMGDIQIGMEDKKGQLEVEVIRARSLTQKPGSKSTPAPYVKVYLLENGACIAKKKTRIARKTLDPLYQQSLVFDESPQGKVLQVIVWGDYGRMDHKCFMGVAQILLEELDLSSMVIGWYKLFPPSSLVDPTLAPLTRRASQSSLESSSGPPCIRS
Kind of data set: 1H-15N HSQC NMR titration. Format: binding.

The data set “AUC” deals with the molecule itself. Kind of data set: AUC.

For `CCCC(=O)OC[C@H](COP(=O)(O)O[C@@H]1[C@H](O)[C@H](O)[C@@H](OP(=O)(O)O)[C@H](OP(=O)(O)O)[C@H]1O)OC(=O)CCC` [diC4-PIP2], the Kd in data set [1] is 0.032 to 0.079 mM.

B1: RIM1α C2B domain (GST tag cleaved) (domain or fragment, rat)
chain: T1 sequence (Q9JIR4 1447-1615)
Regarding B1, the equilibrium dissociation constant (Kd) in “AUC” was about 3 mM.

In general, Kd refers to the free concentration of one partner at which half of the binding sites on the other are occupied at equilibrium, for simple one-to-one binding. A low value points to higher affinity.
